Test results published in article PMC12053642, “Oral PRI-002 treatment in patients with MCI or mild AD: a randomized, double-blind phase 1b trial” (Nature Communications, 2025).
Values joined by “and” are separate entries in the source; they are usually repeats but may differ in a detail not shown here. Equal entries are not always repeated. “Also recorded” adds a separate entry of the source. Square brackets hold non-standard residues; d marks the D form. Peptide text beside a SMILES is read from it.

Tests used:
[1] = PRI-002 concentration in CSF; format: in vivo, human
Method: (§1) In addition, also CSF levels of PRI-002 were determined. Due to non-specific binding of PRI-002 to vials used for sampling and storage the measured values, which are depicted in the Supplementary Table 7 are minimal values and the actual values will most probably be higher than reported here.
(11) Why were there no PK (drug concentration) assessments in CSF? Because BBB penetration in mice vs humans can diverge, matching CSF drug concentrations in human to those achieved in the animal pharmacology studies would be more compelling than matching […] drug concentrations. If there is a fundamental technical problem, it should be mentioned in the manuscript. […]
were unable to determine exact values. Due to non-specific binding of PRI-002 to vials used for sampling and storage of CSF, the measured values, which are depicted in the Table below are minimal values and will probably be higher than reported here.
Considering the three CSF samples in which the PRI-002 levels were above the LLOQ, approximately 15% of the mean predose plasma level of all patients at Day 28 (1.97±2.4 ng/ml) reached the CSF and […]
as §1, with “We will include the Table S5 in the supplement and the following sentence in the results part page 11, line 327-331: ”In” for “In”, “non -specific” for “non-specific”, “the” for “the Supplementary”, “S7” for “7”
Considering the three CSF samples in which the PRI -002 levels were above the LLOQ, approximately […]
Table S7 PRI-002 Level in CSF of […]

p-tau = assay: CSF p-tau181, Lumipulse immunoassay; format: in vivo, human; conditions: Day 28, n=9, 300 mg q.d. oral 28 d
Method: (§2) The effect of PRI-002 on cognition and function was tested by the CERAD+ battery and CDR-SB at baseline, Day 28, and Day 56, exploratory endpoints included the change of biomarkers (p-tau, t-tau, Aβ 1-40, Aβ 1-42 and Aβ oligomers) in CSF, blood plasma; change in CERAD+ test battery and CDR-SB scores.

t-tau = assay: CSF t-tau, Lumipulse immunoassay; format: in vivo, human; conditions: Day 28, n=9, 300 mg q.d. oral 28 d
Method: as §2

Aβ 1-40, Aβ 1-42 = assay: CSF Aβ 1-42 and ratio Aβ42/40, Lumipulse immunoassay; format: in vivo, human; conditions: Day 28, one line per patient, 300 mg q.d. oral 28 d
Method: as §2

[2] = test system: patients with MCI or mild dementia due to AD; assay: Other tests of the CERAD+ battery (TMT-A, TMT-B, figure drawing, figure recall, clock, WMS delayed recall); format: in vivo, human; parameters: Fig Recall (Figure Recall test), mean / Clock (Clock drawing test), mean / WMS delayed recall (Wechsler Memory Scale), mean / Fig Draw (Figure Drawing test), mean / Fig Recall / Clock / WMS delayed recall / Fig Draw: scale not given here; TMT-B (Trail Making Test B), mean / TMT-A / TMT-B: unit not given here; conditions: for Clock (Clock drawing test), mean / Fig Draw (Figure Drawing test), mean / Fig Recall (Figure Recall test), mean / TMT-A (Trail Making Test A), mean / TMT-B (Trail Making Test B), mean / WMS delayed recall (Wechsler Memory Scale), mean: 300 mg q.d. oral 28 d; for Clock / Fig Draw / Fig Recall / TMT-A / TMT-B / WMS delayed recall: individual patient values, PRI-002 group
Method: as §2

[3] = test system: patients with MCI or mild dementia due to AD; assay: Clinical Dementia Rating Sum of Boxes (CDR-SB); format: in vivo, human; conditions: 300 mg q.d. oral 28 d
Method: as §2

[4] = Day 1 of the MAD study; dose 320 mg/person; cited from earlier work
Method: On the two test days (Day 1 and Day 28), plasma levels were highly variable (Fig. 1). Coefficient of variations (CVs) were clearly above 100% at 0.5 h after the first treatment and at the pre-treatment time of Day 28 (Supplementary Table 8). […] The high variability is due to a non-Gaussian data distribution. Mean maximum plasma levels on Day 1 (Day 28) of 4.46 ± 3.71 ng/ml (12.6 ...

[5] = test system: patients with MCI or mild dementia due to AD; assay: Adverse events assessment (AE/SAE, MedDRA 23.0), phase 1b trial; conditions: 300 mg q.d. oral 28 d
Method: During treatment, the frequency of study visits at the trial site was 14 days (Day 1, day 14, Day 28). A last assessment took place at Day 56. At Day 7 and Day 21 additional phone contacts for safety assessments were performed.
For safety assessment during baseline, at Day 14, 28, and 56, laboratory parameters and vital signs were measured, a physical exam was performed, and ECGs were recorded per protocol. […] In addition, nature, frequency, severity, and timing of AEs and SAEs were recorded at day 14, 28, and 56. Standardized AE reports were provided and analysed by the Data Safety and Monitoring Board (DSMB).
Primary endpoints included nature, frequency, severity, and timing of AEs and SAEs; changes in routine laboratory values, ECG, MRI, EEG, and vital signs.

CC(C)C[C@@H](NC(=O)[C@H](NC(=O)[C@H]1CCCN1)[C@H](C)O)C(=O)N[C@H](Cc1c[nH]cn1)C(=O)N[C@@H](C(=O)N[C@H](Cc1c[nH]cn1)C(=O)N[C@H](CC(N)=O)C(=O)N[C@H](CCCNC(=N)N)C(=O)N[C@H](CCCNC(=N)N)C(=O)N[C@H](CCCNC(=N)N)C(=O)N[C@H](CCCNC(=N)N)C(=O)N[C@H](CCCNC(=N)N)C(N)=O)[C@H](C)O [PRI-002] (H-[dP][dT][dL][dH][dT][dH][dN][dR][dR][dR][dR][dR]-NH2; N-terminus and C-terminus assumed)
PRI-002 Level in CSF of individual patients ([1]; Day 28, LLOQ 0.200, minimal values due to non-specific binding to vials, one line per patient, 300 mg q.d. oral): < 0.200 ng PRI-002/ml (6×) and 0.203 ng PRI-002/ml and 0.377 ng PRI-002/ml and 0.304 ng PRI-002/ml | share of the mean predose plasma level that reached the CSF ([1]; three CSF samples above LLOQ versus predose plasma of all patients at Day 28): approximately 15% | share of the mean predose plasma level that reached the CSF ([1]; three CSF samples above LLOQ versus predose plasma of patients 2, 3 and 4 at Day 28): approximately 8% | p-tau, Mean (p-tau): 112.4 pg/mL | t-tau, Mean (t-tau): 698.7 pg/mL | Aβ42, individual patients (Aβ 1-40, Aβ 1-42): 350 pg/mL and 512 pg/mL and 223 pg/mL and 748 pg/mL and 456 pg/mL and 595 pg/mL and 670 pg/mL and 791 pg/mL and 820 pg/mL | Ratio Aβ42/40, individual patients (Aβ 1-40, Aβ 1-42): 0.033 and 0.050 and 0.026 and 0.042 and 0.036 and 0.045 and 0.059 and 0.056 and 0.047 | Clock (Clock drawing test), mean ([2]; Day 1 (baseline), N=9): 1.7 | Clock ([2]; Day 1): 1.0 and 2.0 and 3.0 | Fig Draw ([2]; Day 1): 11 and 9 and 10 and 8 | Fig Recall ([2]; Day 1): 2 and 4 and 7 and 0 and 6 and 5 and 11 and 8 | TMT-A ([2]; Day 1): 98 and 74 and 60 and 47 and 28 and 43 and 103 and 33 and 58 | TMT-B ([2]; Day 1): 240 and 283 and 160 and 205 and 100 and 77 and 141 and 80 and 132 | WMS delayed recall ([2]; Day 1): 5 and 0 and 4 and 14 and 30 and 7 and 28 and 2 | Clock (Clock drawing test), mean ([2]; Day 28, N=8): 1.6 | Fig Draw (Figure Drawing test), mean ([2]; Day 28, N=8): 10.8 | Fig Recall (Figure Recall test), mean ([2]; Day 28, N=8): 6.9 | TMT-A (Trail Making Test A), mean ([2]; Day 28, N=8): 58.4 | TMT-B (Trail Making Test B), mean ([2]; Day 28, N=8): 137.5 | WMS delayed recall (Wechsler Memory Scale), mean ([2]; Day 28, N=8): 12.8 | Clock ([2]; Day 28): 4.0 and 2.0 and 1.0 | Fig Draw ([2]; Day 28): 11 and 9 | Fig Recall ([2]; Day 28): 0 and 6 and 5 and 11 and 9 and 4 | TMT-A ([2]; Day 28): 98 and 51 and 60 and 36 and 50 and 86 and 26 | TMT-B ([2]; Day 28): 270 and 115 and 127 and 87 and 80 and 155 and 62 and 204 | WMS delayed recall ([2]; Day 28): 2 and 0 and 10 and 9 and 34 and 14 and 27 and 6 | Fig Draw (Figure Drawing test), mean ([2]; Day 56, N=9): 10.9 | Fig Recall (Figure Recall test), mean ([2]; Day 56, N=9): 7.4 | TMT-A (Trail Making Test A), mean ([2]; Day 56, N=9): 53.9 | TMT-B (Trail Making Test B), mean ([2]; Day 56, N=9): 121.9 | WMS delayed recall (Wechsler Memory Scale), mean ([2]; Day 56, N=9): 15.0 | Clock ([2]; Day 56): 4.0 and 2.0 and 1.0 and 3.0 | Fig Draw ([2]; Day 56): 11 and 10 | Fig Recall ([2]; Day 56): 0 and 4 and 7 and 2 and 10 and 11 | TMT-A ([2]; Day 56): 70 and 79 and 45 and 88 and 28 and 40 and 51 and 30 and 54 | TMT-B ([2]; Day 56): 238 and 116 and 128 and 182 and 72 and 86 and 119 and 64 and 92 | WMS delayed recall ([2]; Day 56): 3 and 0 and 15 and 30 and 23 and 39 and 10 | CDR-SB, Mean ([3]; Day 28, n=8): 1.75 | CDR-SB, Mean ([3]; Day 56, n=9): 2.39 | AUC0-4 hour [4]: 33.7 ng·h/mL | partial AUC up to 4 h as percentage of total AUC [4]: 44.2% | tolerability ([5]; n=9): well tolerated | SAEs or deaths during the trial ([5]; n=9, Day 1-56): No SAEs or deaths; also recorded: No SAEs | AEs probably or possibly related to study treatment, number ([5]; Mild (grade 1), n=9): 4 | AEs probably or possibly related to study treatment, number ([5]; Moderate (grade 2), n=9): 2 | AEs probably or possibly related to study treatment, number ([5]; Severe (grade 3), n=9): 0 | Gastrointestinal disorders, number of AEs ([5]; TOTAL, all grades, n=9): 1 | Injury, poisoning and procedural complications, number of AEs ([5]; TOTAL, all grades, n=9): 1 | Musculoskeletal and connective tissue disorders, number of AEs ([5]; TOTAL, all grades, n=9): 1 | Gastrointestinal disorders, number of AEs ([5]; grade 1 (Mild), n=9): 1 | Injury, poisoning and procedural complications, number of AEs ([5]; grade 1 (Mild), n=9): 1 | Musculoskeletal and connective tissue disorders, number of AEs ([5]; grade 1 (Mild), n=9): 1 | Nervous system disorders, number of AEs ([5]; grade 1 (Mild), n=9): 5 | Number of subjects with at least one AE ([5]; grade 1 (Mild), n=9): 4 | Psychiatric disorders, number of AEs ([5]; grade 1 (Mild), n=9): 3 | Total number of AEs ([5]; grade 1 (Mild), n=9): 14 | Nervous system disorders, number of AEs ([5]; grade 2 (Moderate), n=9): 2 | Number of subjects with at least one AE ([5]; grade 2 (Moderate), n=9): 1 | Number of subjects with at least one AE ([5]; grade 3 (Severe), n=9): 0 | Total number of AEs ([5]; grade 3 (Severe), n=9): 0 | subjects with one or more AEs ([5]; safety population, n=9): 56%
